In the supplement of paper PMC10307832:

What was measured:
Assay in all cases: relative viability (nuclei count vs DMSO), 5 days (fraction); higher = more cells survive
Pemetrexed + Alpelisib = compound: Nc1nc2[nH]cc(CCc3ccc(C(=O)N[C@@H](CCC(=O)O)C(=O)O)cc3)c2c(=O)[nH]1 [Pemetrexed] + Cc1nc(NC(=O)N2CCC[C@H]2C(N)=O)sc1-c1ccnc(C(C)(C)C(F)(F)F)c1 [Alpelisib] (partner 2 µM)
In short: (§1)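 Lung cancer cell lines were pin-tool dosed in 1536-well plates on the day after seeding, with either a lone drug or a fixed anchor-drug dose plus five library-drug doses (not always all listed) in √10 steps. Nuclei were counted on 4× images after 5 days. Relative viability is the ratio of treated-well to vehicle-well nuclei counts, with each value a median of duplicate plates.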

Pemetrexed + Phenformin = compound: Nc1nc2[nH]cc(CCc3ccc(C(=O)N[C@@H](CCC(=O)O)C(=O)O)cc3)c2c(=O)[nH]1 [Pemetrexed] + N=C(N)NC(=N)NCCc1ccccc1 [Phenformin] (partner 250 µM)
In short: as §1

Idelalisib + Phenformin = compound: CC[C@H](Nc1ncnc2[nH]cnc12)c1nc2cccc(F)c2c(=O)n1-c1ccccc1 [Idelalisib] + N=C(N)NC(=N)NCCc1ccccc1 [Phenformin] (partner 250 µM)
In short: as §1

Idelalisib + Foretinib = compound: CC[C@H](Nc1ncnc2[nH]cnc12)c1nc2cccc(F)c2c(=O)n1-c1ccccc1 [Idelalisib] + COc1cc2c(Oc3ccc(NC(=O)C4(C(=O)Nc5ccc(F)cc5)CC4)cc3F)ccnc2cc1OCCCN1CCOCC1 [Foretinib] (partner 0.25 µM)
In short: as §1

Row | Cell Line | relative viability (Pemetrexed + Alpelisib; first compound 0.002 µM) | relative viability (Pemetrexed + Alpelisib; first compound 0.006325 µM) | relative viability (Pemetrexed + Alpelisib; first compound 0.02 µM) | relative viability (Pemetrexed + Alpelisib; first compound 0.06325 µM) | relative viability (Pemetrexed + Alpelisib; first compound 0.2 µM) | relative viability (Pemetrexed + Phenformin; first compound 0.002 µM) | relative viability (Pemetrexed + Phenformin; first compound 0.006325 µM) | relative viability (Pemetrexed + Phenformin; first compound 0.02 µM) | relative viability (Pemetrexed + Phenformin; first compound 0.06325 µM) | relative viability (Pemetrexed + Phenformin; first compound 0.2 µM) | relative viability (Idelalisib + Phenformin; first compound 0.04 µM) | relative viability (Idelalisib + Phenformin; first compound 0.1265 µM) | relative viability (Idelalisib + Phenformin; first compound 0.4 µM) | relative viability (Idelalisib + Phenformin; first compound 1.265 µM) | relative viability (Idelalisib + Phenformin; first compound 4 µM) | relative viability (Idelalisib + Foretinib; first compound 0.04 µM) | relative viability (Idelalisib + Foretinib; first compound 0.1265 µM) | relative viability (Idelalisib + Foretinib; first compound 0.4 µM) | relative viability (Idelalisib + Foretinib; first compound 1.265 µM) | relative viability (Idelalisib + Foretinib; first compound 4 µM)
1 | SK-MES-1 | 0.92 | 0.732 | 1.04 | 0.864 | 0.8 | 0.647 | 0.638 | 0.705 | 0.642 | 0.614 | 0.704 | 0.675 | 0.663 | 0.686 | 0.674 | 0.904 | 0.768 | 0.55 | 0.768 | 0.544
2 | NCI-H2023 | 0.573 | 0.521 | 0.558 | 0.524 | 0.289 | 0.343 | 0.397 | 0.473 | 0.354 | 0.203 | 0.407 | 0.391 | 0.363 | 0.361 | 0.351 | 0.92 | 0.859 | 0.617 | 0.739 | 0.637
3 | COR-L 105 | 0.93 | 0.708 | 1.08 | 0.891 | 0.909 | 0.405 | 0.45 | 0.49 | 0.524 | 0.449 | 0.592 | 0.473 | 0.433 | 0.564 | 0.421 | 1.01 | 1.34 | 0.992 | 1.01 | 0.672
4 | NCI-H838 | 0.989 | 0.878 | 1.14 | 0.934 | 0.372 | 0.616 | 0.546 | 0.792 | 0.379 | 0.155 | 0.61 | 0.668 | 0.405 | 0.607 | 0.405 | 1.08 | 0.947 | 0.912 | 0.931 | 0.821
5 | SW 1573 | 0.826 | 0.741 | 0.723 | 0.733 | 0.76 | 0.401 | 0.348 | 0.447 | 0.353 | 0.388 | 0.383 | 0.37 | 0.336 | 0.36 | 0.336 | 1.05 | 1.07 | 0.786 | 0.986 | 0.971
